Laboratory results: patent publication US6416965B2, “Screening methods for presqualene disphosphate analogs” (Brigham and Women's Hospital, priority 1997, dated 2002)

Assays:
[1] = tested on: human neutrophils; assay: FMLP-stimulated 1,4,5-inositol triphosphate (IP3) formation as surrogate for phospholipase C activity; type: cell-based; details: for inhibition of FMLP-triggered IP3 formation: compound 1 μM, 5 min 37° C., FMLP 100 nM, 10 seconds
Procedure: Neutrophils (10^7/500 μl) were electroporated (1.65 kV/cm, 250 μF, Ω∞, Invitrogen Electroporator VI) at 0° C. in the presence of 10−^9-10−^6 M compound VI, VIII, FDP, FMP, squalene or vehicle (ethanol 0.2%). After electroporation, cells, in cytochrome c (0.7 mg/ml), were exposed (10 minutes, 37° C.) to either cytochalasin b (5 μg/mL) and FMLP (10^−7 M)(a) or PMA ((10^−7 M)(b) and supernatants monitored at […]. Electroporation gave a 49.9% reduction in FMLP-stimulated NADPH oxidase compared to naive cells. Values (FIGS. 4a and 4b) represent the mean±SEM for n≧3, d≧6. For adhesion (FIGS. 4c and 4d), changes in light transmittance were monitored (as in Fiore, S., Nicolaou, K. C., Caulfield, T., Kataoka, H. & Serhan, C. N. Biochem. J. 266, 25-31 (1990), the teachings of which are incorporated herein by reference) after addition of compounds VI, VIII (1.6 μM) or vehicle (0.5 min) and FMLP (0.5-5 μM) (2.5 min). Cell viability remained>99%. Values represent the mean±SEM for n=3, d=9. 1,4,5-inositol-triphosphate levels were determined (Amersham) in fresh PMN (10^7 cells) exposed (5 minutes, 37° C.) to compound VI, compound VIII (1 μM) or vehicle and stimulated with FMLP (10^−7M, 37° C.) (as in FIG. 4e). % Inhibition after 10 second exposure to FMLP is reported as mean±SEM for n=4, d≧8. *p <0.05 in Student's paired t-test compared with control, while “NS” indicates no significant change compared to incubations in the presence of vehicle (ethanol 0.2%) alone. Stereochemistry of PSDP and PSMP (FIG. 4f) were assigned by routine methods (Poulter, C. D. and Rilling, H. C. Acc. Chem. Res. 11, 307-313, (1978), the teachings of which are hereby incorporated by reference).
In addition to PLD, phospholipase C plays a critical role in intracellular signaling via the hydrolysis of inositol lipids to diacyl glyceride (DAG) and inositol trisphosphate (IP3) to effect a cascade of cellular events in response to pro-inflammatory stimuli. DAG activates protein kinases and is converted, in part, to phosphatidic acid by DAG kinase. Therefore, PLC together with DAG kinase provides a second major source of phosphatidic acid in human neutrophils (Agwu, DE, et al., Journal of Clinical Investigation 1991; 88:531). […] To this end, the impact of PSDP on fMLP-stimulated IP3 formation as a surrogate for phospholipase C activity was examined (FIG. 4e).
Amersham's D-myo-inositol 1,4,5-trisphosphate (IP3) [^3H] assay was used for this procedure (Amersham code TRK 1000, including product assay, the contents of which are incorporated herein by reference). The assay is based on procedures developed by Takata S. et al. J. Clin. Invest. 93:499 (1994) and Dillon S. B. et al. J. Biol. Chem. 262:11546 (1987), the contents of which are incorporated herein by reference in their entirety. [drawing 24] […]

[2] = target: T1, Gst-Grb2 fusion protein (Homo sapiens, UniProt P62993); assay: PSDP equilibrium binding assay to GST-GRB2
T1 construct: purchased Upstate Biotechnology 14-128
Procedure: Equilibrium binding was determined for ^32PO4-PSDP (1 μM) to the adaptor protein, Grb2, which is known to carry two SH3 domains and one SH2 domain (Lowenstein, EJ, et al., Cell, 1992; 70:431). […] Bound material was separated from unbound by spin filtration (0.2 μm) and quantitated by scintillation counting.
To 100 μl of 0.9% NaCl was added 2 μg GST-GRB2 with 0-100 μg compound (e.g., delipidated human serum albumin, SH3-bearing SOS peptide or unlabeled PSDP) to be tested. The samples were prepared directly in the top of PGC spin filter tubes.
To the solution was added radiolabeled-PSDP in 1 μl ethanol. The mixture was vortexed and incubated at 37° C. for 30 minutes. After the incubation period, the sample was centrifuged at 2000 rpm at 25° C. for 3 minutes. […] The filter was removed, placed in a scintillation vial and the amount of radioactivity bound to the trapped agarose complex (i.e., bound material) was determined.
1 ml of CHCl3:MeOH (2:1) was added to the filtrate (a clear interface should be evident). […] At this stage, dependent upon the amount of radioactivity present, the radioactivity of the sample was determined either in scintillation fluid or by phosphoimage after TLC. […]
Bound material is reflected in the filtrate by loss of radioactivity when radiolabeled material is incubated in the presence of the GRB2 complex compared to the absence of the agarose complex. […]

binding of radiolabeled PSDP to Gst-Grb2 complexed to agarose beads ([2]; 32PO4-PSDP 1 μM, 20 min 37° C.): bound
competition of radioligand (32PO4-PSDP) off Gst-Grb2 ([2]; excess unlabeled PSDP, albumin 50 μg, Sos 50 μg): could be competed off
SMILES: CC(C)=CCC/C(C)=C/CC/C(C)=C/C1C(COP(=O)(O)OP(=O)(O)O)C1(C)CC/C=C(\C)CCC=C(C)C (stereo in doubt) [Compound VI, presqualene diphosphate]
inhibition of FMLP-triggered IP3 formation [1]: 56%
inhibition of FMLP-triggered IP3 formation ([1]; listed as PSDP): > 50%
inhibition of 1,4,5-inositol-triphosphate formation ([1]; nM-μM amounts): inhibited
